One data set concerns the target Rhesus PDE2A3 (Macaca mulatta, UniProt B3VTJ2). The data set can be described thus: PDE2 fluorescence polarization (IMAP FP) inhibition assay, rhesus PDE2A3. In kind it is biochemical, rhesus macaque. Background: Fluorescence polarisation rises when a labelled molecule tumbles more slowly, as on binding a larger partner.
Another data set has as its target human PDE2A1 (Homo sapiens (Human), UniProt O00408). Kind of data set: PDE2 IMAP FP inhibition assay, human PDE2A1 (selectivity panel format). Type of data set: biochemical. The method, boiled down: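 Enzyme dosed to give about 20% substrate turnover acts for 60 min at room temperature on 50 nM FAM-cAMP plus 1000 nM cGMP (Tris pH 7.2, MgCl2, DTT, Tween-20 buffer). IMAP binding solution then stops the reaction; after 1 h, polarization is measured from parallel and perpendicular fluorescence.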

The next data set deals with P-glycoprotein (P-gp) (Homo sapiens (Human), UniProt P08183). The data set can be described thus: P-gp transport, experimental BA/AB ratio, human. In kind it is in vitro ADME. Conditions: LLC-PK1, 1 μM substrate concentration. The text has this: (§1) See Doan et al. “Passive permeability and P-glycoprotein-mediated efflux differentiate central nervous system (CNS) and non-CNS marketed drugs”, J. Pharm. Exper. […] Desirable human BA/AB ratio is less than 2.0. […] See, for example, Desai, et al. Integration of in Silico and in Vitro Tools for Scaffold Optimization during Drug Discovery: Predicting P-glycoprotein Efflux” Mol. Pharmac.

Data set [1] concerns the target P-glycoprotein (P-gp, rat Mdr1a) (Rattus norvegicus, UniProt Q6PSM0). The data set can be described thus: P-gp transport, experimental BA/AB ratio, rat LLC-Mdr1a. Type of data set: in vitro ADME. Conditions: LLC-PK1; rat LLC-Mdrla; 1 μM substrate concentration.
From the text: as §1

Setting [2] is: Lab A, read-out: Rhesus PDE2 Ki (nM) - Lab A.
[3] abbreviates: Lab B, read-out: Rhesus PDE2 Ki (nM) - Lab B.
Where [4] appears, read: Lab B, read-out: Human PDE2 Ki (nM) - Lab B.
The mark [5] stands for this setting: Lab A, read-out: Human PDE2 Ki (nM) - Lab A.

The values below come from patent US10285989B2, “Pyrimidinone amide compounds as PDE2 inhibitors” (Merck Sharp & Dohme Corp., priority 2015, dated 2019).

The term Ki denotes the equilibrium dissociation constant of an inhibitor or competing ligand from its target. A word on the efflux ratio: it is the permeability from basolateral to apical divided by that in the opposite direction, in the common usage.

The structures appear in SMILES notation. Read-outs that look alike come from different tables or passages of the source.

Chain of human PDE2A1 (O00408 other isoform, or with tags, fused parts or gaps): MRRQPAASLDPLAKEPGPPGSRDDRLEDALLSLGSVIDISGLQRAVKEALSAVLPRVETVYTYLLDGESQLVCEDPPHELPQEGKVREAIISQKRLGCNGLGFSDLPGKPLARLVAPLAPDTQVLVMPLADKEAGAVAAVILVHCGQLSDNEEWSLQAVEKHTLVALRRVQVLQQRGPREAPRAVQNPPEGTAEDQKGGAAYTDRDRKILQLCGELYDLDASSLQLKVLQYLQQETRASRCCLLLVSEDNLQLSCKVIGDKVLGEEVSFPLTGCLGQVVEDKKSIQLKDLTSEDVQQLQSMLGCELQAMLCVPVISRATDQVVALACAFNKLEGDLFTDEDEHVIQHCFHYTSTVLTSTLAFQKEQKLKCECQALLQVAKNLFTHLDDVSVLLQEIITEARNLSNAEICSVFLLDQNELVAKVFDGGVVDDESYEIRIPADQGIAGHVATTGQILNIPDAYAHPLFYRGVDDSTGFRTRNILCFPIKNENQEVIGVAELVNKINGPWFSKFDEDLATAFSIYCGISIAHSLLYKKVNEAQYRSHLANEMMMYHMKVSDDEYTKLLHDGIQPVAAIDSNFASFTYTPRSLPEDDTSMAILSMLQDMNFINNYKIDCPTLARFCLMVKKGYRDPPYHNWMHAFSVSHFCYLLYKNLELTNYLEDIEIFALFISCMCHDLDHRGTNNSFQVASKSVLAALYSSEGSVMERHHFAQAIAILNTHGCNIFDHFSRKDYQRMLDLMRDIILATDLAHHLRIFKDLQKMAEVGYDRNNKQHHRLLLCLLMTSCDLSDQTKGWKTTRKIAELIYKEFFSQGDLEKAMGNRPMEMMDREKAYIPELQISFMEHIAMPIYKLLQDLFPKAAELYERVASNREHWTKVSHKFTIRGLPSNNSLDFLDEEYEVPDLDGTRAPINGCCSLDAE
Chain of Rhesus PDE2A3 (B3VTJ2 1-941): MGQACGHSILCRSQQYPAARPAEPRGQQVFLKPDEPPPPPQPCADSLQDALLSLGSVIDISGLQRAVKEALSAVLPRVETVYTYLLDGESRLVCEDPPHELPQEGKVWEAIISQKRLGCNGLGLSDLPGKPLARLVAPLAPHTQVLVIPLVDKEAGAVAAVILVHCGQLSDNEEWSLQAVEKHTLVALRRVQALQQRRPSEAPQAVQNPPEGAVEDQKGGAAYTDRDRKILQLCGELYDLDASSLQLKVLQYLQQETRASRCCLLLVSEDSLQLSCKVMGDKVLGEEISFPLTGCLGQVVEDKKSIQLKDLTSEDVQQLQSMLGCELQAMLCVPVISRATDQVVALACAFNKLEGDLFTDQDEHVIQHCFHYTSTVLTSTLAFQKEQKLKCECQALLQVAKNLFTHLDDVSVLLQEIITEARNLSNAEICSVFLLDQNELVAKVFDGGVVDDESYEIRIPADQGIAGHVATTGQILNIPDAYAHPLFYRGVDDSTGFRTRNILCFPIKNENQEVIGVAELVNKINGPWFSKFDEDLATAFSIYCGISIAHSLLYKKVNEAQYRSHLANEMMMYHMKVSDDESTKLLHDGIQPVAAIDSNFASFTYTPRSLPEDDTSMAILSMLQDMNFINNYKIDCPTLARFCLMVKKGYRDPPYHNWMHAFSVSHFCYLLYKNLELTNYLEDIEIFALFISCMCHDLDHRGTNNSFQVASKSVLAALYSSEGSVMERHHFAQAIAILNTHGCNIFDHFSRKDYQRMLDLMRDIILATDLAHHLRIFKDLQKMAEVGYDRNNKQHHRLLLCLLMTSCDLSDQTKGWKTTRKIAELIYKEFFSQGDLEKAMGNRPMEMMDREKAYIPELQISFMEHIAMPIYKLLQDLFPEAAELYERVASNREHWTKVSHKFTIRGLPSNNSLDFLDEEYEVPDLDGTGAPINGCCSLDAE
Chain of P-glycoprotein (P-gp) (P08183 whole entry): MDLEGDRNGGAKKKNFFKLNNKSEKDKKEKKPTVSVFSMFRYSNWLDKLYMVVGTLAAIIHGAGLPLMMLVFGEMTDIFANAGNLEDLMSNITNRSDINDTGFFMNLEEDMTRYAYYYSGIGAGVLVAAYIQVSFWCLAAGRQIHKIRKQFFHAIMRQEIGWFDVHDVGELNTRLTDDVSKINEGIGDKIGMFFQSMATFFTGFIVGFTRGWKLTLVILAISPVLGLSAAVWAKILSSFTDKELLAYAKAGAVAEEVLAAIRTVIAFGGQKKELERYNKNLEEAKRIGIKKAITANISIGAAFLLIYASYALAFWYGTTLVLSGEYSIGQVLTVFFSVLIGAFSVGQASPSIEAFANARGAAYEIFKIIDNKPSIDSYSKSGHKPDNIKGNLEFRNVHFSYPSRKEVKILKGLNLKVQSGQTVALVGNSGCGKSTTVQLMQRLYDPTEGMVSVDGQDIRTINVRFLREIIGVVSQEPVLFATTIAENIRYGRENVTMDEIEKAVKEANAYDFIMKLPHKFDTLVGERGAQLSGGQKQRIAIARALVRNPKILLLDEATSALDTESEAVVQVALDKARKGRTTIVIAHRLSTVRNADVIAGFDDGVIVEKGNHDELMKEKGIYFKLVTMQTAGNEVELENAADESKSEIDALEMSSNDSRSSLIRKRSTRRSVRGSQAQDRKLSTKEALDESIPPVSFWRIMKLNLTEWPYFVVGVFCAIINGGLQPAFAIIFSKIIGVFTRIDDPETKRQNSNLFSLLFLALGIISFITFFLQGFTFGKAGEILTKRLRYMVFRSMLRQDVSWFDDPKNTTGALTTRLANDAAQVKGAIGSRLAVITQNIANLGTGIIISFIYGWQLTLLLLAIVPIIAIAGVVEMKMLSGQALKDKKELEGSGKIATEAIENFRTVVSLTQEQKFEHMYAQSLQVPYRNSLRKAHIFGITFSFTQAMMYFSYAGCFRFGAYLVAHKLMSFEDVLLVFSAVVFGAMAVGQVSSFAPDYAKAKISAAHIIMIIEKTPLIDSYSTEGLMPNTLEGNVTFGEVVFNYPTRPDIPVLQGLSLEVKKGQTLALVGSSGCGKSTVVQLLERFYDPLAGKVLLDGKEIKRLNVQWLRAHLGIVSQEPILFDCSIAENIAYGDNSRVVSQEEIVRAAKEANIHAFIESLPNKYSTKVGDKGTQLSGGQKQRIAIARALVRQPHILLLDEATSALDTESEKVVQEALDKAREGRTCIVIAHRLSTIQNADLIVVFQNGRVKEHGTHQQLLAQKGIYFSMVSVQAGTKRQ
Chain of P-glycoprotein (P-gp, rat Mdr1a) (Q6PSM0 1-1272): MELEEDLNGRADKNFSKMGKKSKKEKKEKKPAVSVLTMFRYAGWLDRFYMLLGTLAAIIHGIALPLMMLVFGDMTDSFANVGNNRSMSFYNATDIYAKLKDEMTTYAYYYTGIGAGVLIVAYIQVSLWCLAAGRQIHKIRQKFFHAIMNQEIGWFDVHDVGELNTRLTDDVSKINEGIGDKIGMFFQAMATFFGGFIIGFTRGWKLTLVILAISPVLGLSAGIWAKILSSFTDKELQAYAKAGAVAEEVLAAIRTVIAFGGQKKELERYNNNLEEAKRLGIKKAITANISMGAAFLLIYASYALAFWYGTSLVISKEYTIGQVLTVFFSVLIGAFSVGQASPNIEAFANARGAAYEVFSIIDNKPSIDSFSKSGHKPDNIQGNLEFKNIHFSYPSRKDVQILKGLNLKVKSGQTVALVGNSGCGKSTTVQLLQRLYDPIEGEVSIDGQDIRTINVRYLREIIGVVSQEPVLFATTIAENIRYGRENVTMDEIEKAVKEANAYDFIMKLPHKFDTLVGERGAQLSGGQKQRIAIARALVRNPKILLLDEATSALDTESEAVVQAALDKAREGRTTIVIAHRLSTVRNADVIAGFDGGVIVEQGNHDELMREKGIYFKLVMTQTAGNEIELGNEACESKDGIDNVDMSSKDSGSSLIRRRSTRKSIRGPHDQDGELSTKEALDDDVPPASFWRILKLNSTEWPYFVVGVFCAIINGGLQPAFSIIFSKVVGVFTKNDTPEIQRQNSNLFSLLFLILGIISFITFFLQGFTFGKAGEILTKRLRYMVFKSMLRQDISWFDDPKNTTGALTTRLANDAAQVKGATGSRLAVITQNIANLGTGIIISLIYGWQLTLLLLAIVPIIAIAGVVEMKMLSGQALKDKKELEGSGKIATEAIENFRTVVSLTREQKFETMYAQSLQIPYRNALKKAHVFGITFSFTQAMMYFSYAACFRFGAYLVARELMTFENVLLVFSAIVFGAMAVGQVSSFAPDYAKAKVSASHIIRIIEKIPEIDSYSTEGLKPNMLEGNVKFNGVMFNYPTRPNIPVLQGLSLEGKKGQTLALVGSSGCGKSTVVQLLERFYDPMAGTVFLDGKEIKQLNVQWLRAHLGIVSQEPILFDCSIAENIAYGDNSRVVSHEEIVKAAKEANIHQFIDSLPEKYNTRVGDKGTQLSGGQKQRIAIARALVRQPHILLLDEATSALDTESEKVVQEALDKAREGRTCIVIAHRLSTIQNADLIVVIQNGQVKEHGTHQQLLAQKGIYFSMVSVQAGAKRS

With `CC(C)[C@@H](NC(=O)c1cc(=O)[nH]c(N2CC[C@@H](F)C2)n1)c1ccc(OC(F)(F)F)c(F)c1` [Example 163, 2-[(3R)-3-fluoropyrrolidin-1-yl]-N-{(R)-1-[3-fluoro-4-(trifluoromethoxy)phenyl]-2-methylpropyl}-6-oxo-1,6-dihydropyrimidine-4-carboxamide], the values for the Ki on Rhesus PDE2A3 (setting [2]), on Rhesus PDE2A3 (setting [3]) and on human PDE2A1 (setting [4]) were 4.1 nM, 5 nM and 4.2 nM, respectively. Besides, the efflux ratio at 1 μM came out at 0.7 at P-glycoprotein (P-gp) and 15.8 in data set [1].

`CN(C)c1nc(C(=O)N[C@@H](c2ccc(C(F)(F)F)c(F)c2)C2CC2)cc(=O)[nH]1` [Example 109, N-{(1R)-cyclopropyl[3-fluoro-4-(trifluoromethyl)phenyl]methyl}-2-(dimethylamino)-6-oxo-1,6-dihydropyrimidine-4-carboxamide]: the Ki on Rhesus PDE2A3 (setting [2]) came to 0.91 nM; on Rhesus PDE2A3 (setting [3]) it was 1.4 nM; at human PDE2A1 (setting [4]) it was 1.9 nM. Also, the efflux ratio at 1 μM on P-glycoprotein (P-gp) worked out at 0.5; in data set [1], 2.5.

In the case of `O=C(N[C@@H](c1ccc(C(F)(F)F)cc1)C1CC1)c1cc(=O)[nH]c(N2CC[C@H](F)C2)n1` [Example 167, N-{(R)-cyclopropyl[4-(trifluoromethyl)phenyl]methyl}-2-[(3S)-3-fluoropyrrolidin-1-yl]-6-oxo-1,6-dihydropyrimidine-4-carboxamide], the figures for the Ki at Rhesus PDE2A3 (setting [3]) and on human PDE2A1 (setting [4]) were 1.4 nM and 2.3 nM, respectively. Also, the efflux ratio at 1 μM was 1.9 on P-glycoprotein (P-gp) and 27.4 in data set [1].

`CN(C)c1nc(C(=O)N[C@@H](c2ccc(SC(F)(F)F)c(F)c2)C2CC2)cc(=O)[nH]1` [Example 97, N-[(R)-cyclopropyl{3-fluoro-4-[(trifluoromethyl)sulfanyl]phenyl}methyl]-2-(dimethylamino)-6-oxo-1,6-dihydropyrimidine-4-carboxamide]: the results for the Ki at Rhesus PDE2A3 (setting [2]) and at human PDE2A1 (setting [5]) were 0.62 nM and 0.34 nM, respectively. Also, the efflux ratio at 1 μM is 0.4 at P-glycoprotein (P-gp) and 1.8 in data set [1].

With `CN(C)c1nc(C(=O)N[C@@H](c2ccc(C(C)(C)C)cc2)C2(C)CC2)cc(=O)[nH]1` [Example 44, N-[(R)-(4-tert-butylphenyl)(1-methylcyclopropyl)methyl]-2-(dimethylamino)-6-oxo-1,6-dihydropyrimidine-4-carboxamide], the Ki at Rhesus PDE2A3 (setting [3]) was 1.6 nM; at human PDE2A1 (setting [4]), 1.5 nM. Besides, the efflux ratio at 1 μM at P-glycoprotein (P-gp) was 0.7; in data set [1], 2.1.

On to `C[C@@H](NC(=O)c1cc(=O)[nH]c(N2CCC2)n1)c1ccc(C(F)(F)F)cc1` [Example 10, (R)-2-(azetidin-1-yl)-6-oxo-N-(1-(4-(trifluoromethyl)phenyl)ethyl)-1,6-dihydropyrimidine-4-carboxamide], for which the Ki on Rhesus PDE2A3 (setting [2]) was 8.5 nM; on human PDE2A1 (setting [5]), 8.2 nM. For the same molecule, the efflux ratio at 1 μM was determined as 0.5 at P-glycoprotein (P-gp) and 3.1 in data set [1].

Regarding `CC(C)[C@@H](NC(=O)c1cc(=O)[nH]c(N(C)C)n1)c1ccc(OC(F)(F)F)cc1` [Example 91, 2-(dimethylamino)-N-{(1R)-2-methyl-1-[4-(trifluoromethoxy)phenyl]propyl}-6-oxo-1,6-dihydropyrimidine-4-carboxamide], the Ki at Rhesus PDE2A3 (setting [2]) is 0.64 nM; at human PDE2A1 (setting [5]), 0.19 nM. Moreover, the efflux ratio at 1 μM at P-glycoprotein (P-gp) was 0.6; in data set [1], 5.1.

`O=C(N[C@@H](c1ccc(SC(F)(F)F)cc1)C1CC1)c1cc(=O)[nH]c(N2CCCC2)n1` [Example 27, N-[(R)-cyclopropyl{4-[(trifluoromethyl)sulfanyl]phenyl}methyl]-6-oxo-2-pyrrolidin-1-yl-1,6-dihydropyrimidine-4-carboxamide]: the Ki at Rhesus PDE2A3 (setting [2]) is 0.58 nM; on human PDE2A1 (setting [5]) it was 0.21 nM. Also, the efflux ratio at 1 μM on P-glycoprotein (P-gp) amounted to 0.8; in data set [1], 7.

As to `CN(C)c1nc(C(=O)N[C@@H](c2ccc(CC(F)(F)F)cc2)C(C)(C)C)cc(=O)[nH]1` [Example 31, 2-(dimethylamino)-N-{(1R)-2,2-dimethyl-1-[4-(2,2,2-trifluoroethyl)phenyl]propyl}-6-oxo-1,6-dihydropyrimidine-4-carboxamide], the Ki on Rhesus PDE2A3 (setting [3]) came out at 0.42 nM; at human PDE2A1 (setting [4]) it was 0.51 nM. The efflux ratio at 1 μM at P-glycoprotein (P-gp) amounted to 1.5; in data set [1], 9.7.

`CC(C)[C@@H](NC(=O)c1cc(=O)[nH]c(N(C)C)n1)c1ccc(C(C)(F)F)c(F)c1` [Example 77, N-{(1R)-1-[4-(1,1-difluoroethyl)-3-fluorophenyl]-2-methylpropyl}-2-(dimethylamino)-6-oxo-1,6-dihydropyrimidine-4-carboxamide]: the inhibition constant Ki at Rhesus PDE2A3 (setting [3]) is 0.21 nM; at human PDE2A1 (setting [4]) it was 0.19 nM. Besides, the results for the efflux ratio at 1 μM (at P-glycoprotein (P-gp); in data set [1]) were 1.1 and 7.3, respectively.

In the case of `CC(C)[C@@H](NC(=O)c1cc(=O)[nH]c(N)n1)c1ccc(SC(F)(F)F)cc1` [Example 154, 2-amino-N-[(1R)-2-methyl-1-{4-[(trifluoromethyl)sulfanyl]phenyl}propyl]-6-oxo-1,6-dihydropyrimidine-4-carboxamide], the Ki stood at 18 nM at Rhesus PDE2A3 (setting [2]) and 9.9 nM on human PDE2A1 (setting [5]). In addition, the efflux ratio at 1 μM on P-glycoprotein (P-gp) is 10.4; in data set [1], 24.7.

As to `CC(C)[C@@H](NC(=O)c1cc(=O)[nH]c(N2CC[C@H](F)C2)n1)c1ccc(OC(F)(F)F)c(F)c1` [Example 162, 2-[(3S)-3-fluoropyrrolidin-1-yl]-N-{(1R)-1-[3-fluoro-4-(trifluoromethoxy)phenyl]-2-methylpropyl}-6-oxo-1,6-dihydropyrimidine-4-carboxamide], the Ki at Rhesus PDE2A3 (setting [2]) is 0.51 nM; on human PDE2A1 (setting [4]) it was 0.61 nM. The efflux ratio at 1 μM was found to be 2.5 on P-glycoprotein (P-gp) and 17.9 in data set [1].

Take `CC[C@@H](NC(=O)c1cc(=O)[nH]c(N(C)C)n1)c1ccc(SC(F)(F)F)c(F)c1` [Example 98, 2-(dimethylamino)-N-[(1R)-1-{3-fluoro-4-[(trifluoromethyl)sulfanyl]phenyl}propyl]-6-oxo-1,6-dihydropyrimidine-4-carboxamide]: the Ki at Rhesus PDE2A3 (setting [2]) is 0.54 nM; at human PDE2A1 (setting [5]), 0.23 nM. Moreover, the efflux ratio at 1 μM on P-glycoprotein (P-gp) was found to be 0.4; in data set [1], 3.

With `C[C@@H](NC(=O)c1cc(=O)[nH]c(N(C)C)n1)c1ccc(OC(F)(F)F)c(F)c1` [Example 90, 2-(dimethylamino)-N-{(1R)-1-[3-fluoro-4-(trifluoromethoxy)phenyl]ethyl}-6-oxo-1,6-dihydropyrimidine-4-carboxamide], the results for the Ki at Rhesus PDE2A3 (setting [2]) and on human PDE2A1 (setting [5]) were 0.69 nM and 0.28 nM, respectively. The efflux ratio at 1 μM at P-glycoprotein (P-gp) came to 0.5; in data set [1], 2.7.

With `CN(C)c1nc(C(=O)N[C@@H](c2ccc(C(F)(F)F)cc2)C2CC2)cc(=O)[nH]1` [Example 108, N-{(1R)-cyclopropyl[4-(trifluoromethyl)phenyl]methyl}-2-(dimethylamino)-6-oxo-1,6-dihydropyrimidine-4-carboxamide], the values for the Ki at Rhesus PDE2A3 (setting [2]), on Rhesus PDE2A3 (setting [3]) and at human PDE2A1 (setting [4]) were 0.66 nM, 1.3 nM and 1.8 nM, respectively. Besides, the figures for the efflux ratio at 1 μM (at P-glycoprotein (P-gp); in data set [1]) were 0.4 and 1.9, respectively.

On to `C[C@@H](NC(=O)c1cc(=O)[nH]c(N)n1)c1ccc(SC(F)(F)F)cc1` [Example 145, 2-amino-6-oxo-N-[(1R)-1-{4-[(trifluoromethyl)sulfanyl]phenyl}ethyl]-1,6-dihydro-pyrimidine-4-carboxamide], for which the values for the Ki at Rhesus PDE2A3 (setting [2]) and on human PDE2A1 (setting [5]) were 35 nM and 23 nM, respectively. Moreover, the efflux ratio at 1 μM on P-glycoprotein (P-gp) came to 3.2; in data set [1], 28.9.

With `CC(C)[C@@H](NC(=O)c1cc(=O)[nH]c(N(C)C)n1)c1ccc(C(F)(F)F)c(F)c1` [Example 112, 2-(dimethylamino)-N-{(1R)-1-[3-fluoro-4-(trifluoromethyl)phenyl]-2-methylpropyl}-6-oxo-1,6-dihydropyrimidine-4-carboxamide], the inhibition constant (Ki) on Rhesus PDE2A3 (setting [2]) was 0.27 nM; on Rhesus PDE2A3 (setting [3]), 0.44 nM; on human PDE2A1 (setting [4]) it was 0.55 nM. The efflux ratio at 1 μM on P-glycoprotein (P-gp) was 0.7; in data set [1], 4.7.

In the case of `CC(C)[C@@H](NC(=O)c1cc(=O)[nH]c(N(C)C)n1)c1ccc(C2CC2)c(F)c1` [Example 41, N-[(1R)-1-(4-cyclopropyl-3-fluorophenyl)-2-methylpropyl]-2-(dimethylamino)-6-oxo-1,6-dihydropyrimidine-4-carboxamide], the Ki came out at 0.31 nM at Rhesus PDE2A3 (setting [3]) and 0.36 nM at human PDE2A1 (setting [4]). In addition, the efflux ratio at 1 μM came out at 0.4 at P-glycoprotein (P-gp) and 3.6 in data set [1].

`CN(C)c1nc(C(=O)N[C@@H](c2ccc(S(F)(F)(F)(F)F)cc2)C2(C)CC2)cc(=O)[nH]1` [Example 57, 2-(dimethylamino)-N-{(R)-(1-methylcyclopropyl)[4-(pentafluoro-λ^6-sulfanyl)phenyl]methyl}-6-oxo-1,6-dihydropyrimidine-4-carboxamide]: the Ki at Rhesus PDE2A3 (setting [3]) stood at 0.28 nM; on human PDE2A1 (setting [4]), 0.31 nM. For the same molecule, the efflux ratio at 1 μM on P-glycoprotein (P-gp) was 1.7; in data set [1], 0.7.
